{"source": "patent US10799478B2", "about": "“Treatment of androgen deprivation therapy associated symptoms” (priority 2014, dated 2020)", "key": {"healthy human volunteers": {"tested_on": "healthy human volunteers", "test": "Phase Ib Study of Healthy Volunteers", "format": "in vivo", "settings": "males"}, "[1]": {"test": "Allometric prediction of human clearance, bioavailability and dose"}, "[2]": {"test": "52 Week Toxicity and Toxicokinetic Study in Dogs", "format": "in vivo, dog", "settings": "beagle, dog, in vivo; for Cmax / AUC(0-t): po", "procedure": "(§1) Male and female purebred beagle dogs are assigned to groups, and doses are administered according to Table 9 via oral capsules containing 1 ml/kg of 0 [1% (w/v) carboxymethylcellulose sodium (low viscosity/25-50 cps), 0.5% (w/v) sodium lauryl sulfate and 0.05% (v/v) Dow Corning® Antifoam 1510-US in reverse osmosis water] […] All animals receive the same number of capsules, and Group 1 animals receive capsules containing vehicle control article only. Three animals per sex from Groups 1 and 4 are designated as recovery animals.\n(§2) Assessment of toxicity is based on mortality, clinical signs, body weight and body weight change, food consumption, ophthalmic and neurologic evaluations, ECG measurements, hormone analysis (testosterone, progesterone, luteinizing hormone, and follicle stimulating hormone), semen evaluation (ejaculate volume and sperm number, density, morphology, and motility), and clinical and anatomic pathology. Blood samples are collected for exploratory metabolite analysis and toxicokinetic evaluations."}, "beagle dogs": {"tested_on": "beagle dogs", "test": "52 Week Toxicity and Toxicokinetic Study in Dogs", "format": "in vivo, dog", "procedure": "as §1, §2"}, "[3]": {"test": "Four Week Oral Toxicity Study in Rats", "format": "in vivo, rat", "settings": "CD [Crl:CD (SD)], rat", "procedure": "(§3) Three treatment groups of 10 male and 10 female CD® [Crl:CD® (SD)] rats are administered the test article at respective dose levels of 15, 150, and 1500 mg/kg/day. […] The test article or vehicle is administered to all groups via oral gavage, once a day for 28 consecutive days, at a dose volume of 15 mL/kg. Additionally, three groups of 18 animals/sex/group serves as toxicokinetic (TK) animals and receives the test article in the same manner and dose volume as the main study groups at respective dose levels of 15, 150, and 1500 mg/kg/day. One additional group of three animals/sex serves as the toxicokinetic control and receives the vehicle in the same manner and dose volume as the treated groups.\n(§4) Observations for morbidity, mortality, injury, and the availability of food and water are conducted twice daily for all animals. Observations for clinical signs are conducted weekly for main study animals only. Body weights were measured and recorded weekly for all animals and food consumption is measured and recorded weekly for main study animals. Ophthalmoscopic examinations are conducted pretest on all animals and prior to terminal necropsy for main study animals only. Blood samples for clinical pathology evaluations are collected from all main study animals at necropsy. Urine samples are collected on the last day of dosing. Blood samples for determination of the plasma concentrations of the test article are collected from TK animals at designated time points on Days 1 and 28. After the final blood collection, the TK animals are euthanized and the carcasses are discarded without further evaluation. Liver samples for hepatic enzyme induction analysis are collected at terminal necropsy from main study animals. At study termination, necropsy examinations are performed, organ weights are recorded, and prostate and seminal vesicle tissues are microscopically examined. Additional microscopic examination is performed on the left testis from the first five male rats/group at necropsy."}, "CD [Crl:CD (SD)] rats": {"tested_on": "CD [Crl:CD (SD)] rats", "test": "Four Week Oral Toxicity Study in Rats", "format": "in vivo, rat", "settings": "for decrease in albumin / decrease in total protein / increase in alkaline phosphatase: females", "procedure": "as §3, §4"}, "dogs": {"tested_on": "dogs", "test": "6 month treatment of dogs (Table 10)", "format": "in vivo, dog", "settings": "6 months"}}}
{"smiles": "CC(C)OC(=O)N[C@H]1Cc2c(n(Cc3ccccn3)c3ccc(C#N)cc23)C1", "note": "(single isomer, unassigned) [Example 1]", "values": [{"measurement": "Change from Baseline for P1NP, Comparison to Placebo Difference", "setting": "healthy human volunteers; 1 mg, day 28", "value": 1.49, "unit": "µg/L"}, {"measurement": "Change from Baseline for Procollagen Type I N Propeptide (P1NP), LS Mean", "setting": "healthy human volunteers; 1 mg, day 28", "value": 0.16, "unit": "µg/L"}, {"measurement": "Change from Baseline for P1NP, Comparison to Placebo Difference", "setting": "healthy human volunteers; 1 mg, day 35", "value": -2.26, "unit": "µg/L"}, {"measurement": "Change from Baseline for Procollagen Type I N Propeptide (P1NP), LS Mean", "setting": "healthy human volunteers; 1 mg, day 35", "value": -5.70, "unit": "µg/L"}, {"measurement": "Change from Baseline for P1NP, Comparison to Placebo Difference", "setting": "healthy human volunteers; 5 mg, day 14", "value": 3.27, "unit": "µg/L"}, {"measurement": "Change from Baseline for Procollagen Type I N Propeptide (P1NP), LS Mean", "setting": "healthy human volunteers; 5 mg, day 14", "value": 2.11, "unit": "µg/L"}, {"measurement": "Change from Baseline for P1NP, Comparison to Placebo Difference", "setting": "healthy human volunteers; 5 mg, day 28", "value": 4.20, "unit": "µg/L"}, {"measurement": "Change from Baseline for Procollagen Type I N Propeptide (P1NP), LS Mean", "setting": "healthy human volunteers; 5 mg, day 28", "value": 2.88, "unit": "µg/L"}, {"measurement": "Change from Baseline for P1NP, Comparison to Placebo Difference", "setting": "healthy human volunteers; 5 mg, day 35", "value": 1.13, "unit": "µg/L"}, {"measurement": "Change from Baseline for Procollagen Type I N Propeptide (P1NP), LS Mean", "setting": "healthy human volunteers; 5 mg, day 35", "value": -2.31, "unit": "µg/L"}, {"measurement": "Change from Baseline for P1NP, Comparison to Placebo Difference", "setting": "healthy human volunteers; 15 mg, day 14", "value": 2.49, "unit": "µg/L"}, {"measurement": "Change from Baseline for Procollagen Type I N Propeptide (P1NP), LS Mean", "setting": "healthy human volunteers; 15 mg, day 14", "value": 1.34, "unit": "µg/L"}, {"measurement": "Change from Baseline for P1NP, Comparison to Placebo Difference", "setting": "healthy human volunteers; 15 mg, day 28", "value": 3.41, "unit": "µg/L"}, {"measurement": "Change from Baseline for Procollagen Type I N Propeptide (P1NP), LS Mean", "setting": "healthy human volunteers; 15 mg, day 28", "value": 2.09, "unit": "µg/L"}, {"measurement": "Change from Baseline for P1NP, Comparison to Placebo Difference", "setting": "healthy human volunteers; 15 mg, day 35", "value": 0.03, "unit": "µg/L"}, {"measurement": "Change from Baseline for Procollagen Type I N Propeptide (P1NP), LS Mean", "setting": "healthy human volunteers; 15 mg, day 35", "value": -3.41, "unit": "µg/L"}, {"measurement": "Change from Baseline for P1NP, Comparison to Placebo Difference", "setting": "healthy human volunteers; 25 mg, day 14", "value": -0.92, "unit": "µg/L"}, {"measurement": "Change from Baseline for Procollagen Type I N Propeptide (P1NP), LS Mean", "setting": "healthy human volunteers; 25 mg, day 14", "value": -2.07, "unit": "µg/L"}, {"measurement": "Change from Baseline for P1NP, Comparison to Placebo Difference", "setting": "healthy human volunteers; 25 mg, day 28", "value": 2.75, "unit": "µg/L"}, {"measurement": "Change from Baseline for Procollagen Type I N Propeptide (P1NP), LS Mean", "setting": "healthy human volunteers; 25 mg, day 28", "value": 1.43, "unit": "µg/L"}, {"measurement": "Change from Baseline for P1NP, Comparison to Placebo Difference", "setting": "healthy human volunteers; 25 mg, day 35", "value": 0.47, "unit": "µg/L"}, {"measurement": "Change from Baseline for Procollagen Type I N Propeptide (P1NP), LS Mean", "setting": "healthy human volunteers; 25 mg, day 35", "value": -2.97, "unit": "µg/L"}, {"measurement": "Change from Baseline for P1NP, Comparison to Placebo Difference", "setting": "healthy human volunteers; 75 mg, day 14", "value": -3.81, "unit": "µg/L"}, {"measurement": "Change from Baseline for Procollagen Type I N Propeptide (P1NP), LS Mean", "setting": "healthy human volunteers; 75 mg, day 14", "value": -4.96, "unit": "µg/L"}, {"measurement": "Change from Baseline for P1NP, Comparison to Placebo Difference", "setting": "healthy human volunteers; 75 mg, day 28", "value": 2.81, "unit": "µg/L"}, {"measurement": "Change from Baseline for Procollagen Type I N Propeptide (P1NP), LS Mean", "setting": "healthy human volunteers; 75 mg, day 28", "value": 1.48, "unit": "µg/L"}, {"measurement": "Change from Baseline for P1NP, Comparison to Placebo Difference", "setting": "healthy human volunteers; 75 mg, day 35", "value": 2.35, "unit": "µg/L"}, {"measurement": "Change from Baseline for Procollagen Type I N Propeptide (P1NP), LS Mean", "setting": "healthy human volunteers; 75 mg, day 35", "value": -1.09, "unit": "µg/L"}, {"measurement": "predicted human bioavailability", "setting": "[1]", "value": 49, "unit": "%"}, {"measurement": "allometrically predicted human clearance", "setting": "[1]; 90% CI 24 to 46", "value": 33, "unit": "Uh"}, {"measurement": "NOAEL at 52 weeks", "setting": "[2]; both sexes, oral, daily capsule, 52 weeks", "value": 100, "unit": "mg/kg"}, {"measurement": "Cmax", "setting": "[2]; female, females, 100 mg/kg, after 361 days of dosing", "value": 1880, "unit": "ng/mL"}, {"measurement": "AUC(0-t)", "setting": "[2]; female, females, 100 mg/kg, after 361 days of dosing, read-out: AUC0-24 h", "value": 31500, "unit": "ng·h/mL"}, {"measurement": "AUC(0-t)", "setting": "[2]; male, dogs, 12 months, 3 mg/kg/day, read-out: Male group mean AUC0-24 hr near termination", "value": 3620, "unit": "ng·h/mL"}, {"measurement": "Cmax", "setting": "[2]; male, males, 100 mg/kg, after 361 days of dosing", "value": 1500, "unit": "ng/mL"}, {"measurement": "survival until the scheduled sacrifice", "setting": "beagle dogs; 3, 10, 100 mg/kg", "value": "All animals survived"}, {"measurement": "Accumulation after multiple dosing", "setting": "beagle dogs; dogs, 3 to 100 mg/kg", "value": "observed"}, {"measurement": "NOAEL at 28 days", "setting": "[3]; both sexes, in vivo, 4 weeks oral gavage, highest dose administered", "value": 1500, "unit": "mg/kg/day"}, {"measurement": "AUC(0-t)", "setting": "[3]; female, plasma, oral, females, 1500 mg/kg/day, read-out: Mean steady-state systemic exposure (AUC0-24 hr)", "value": 217000, "unit": "ng·h/mL"}, {"measurement": "systemic exposure (AUC0-24 hr) increase with dose", "setting": "CD [Crl:CD (SD)] rats; 15, 150, 1500 mg/kg/day oral gavage", "value": "less-than-dose-proportional"}, {"measurement": "unscheduled deaths", "setting": "CD [Crl:CD (SD)] rats; 15-1500 mg/kg/day, 28 days", "value": "no unscheduled deaths"}, {"measurement": "decrease in albumin", "setting": "CD [Crl:CD (SD)] rats; 150 mg/kg/day", "value": 12, "unit": "%"}, {"measurement": "decrease in total protein", "setting": "CD [Crl:CD (SD)] rats; 150 mg/kg/day", "value": 9, "unit": "%"}, {"measurement": "increase in alkaline phosphatase", "setting": "CD [Crl:CD (SD)] rats; 150 mg/kg/day", "value": 1.33, "unit": "fold"}, {"measurement": "decrease in albumin", "setting": "CD [Crl:CD (SD)] rats; 1500 mg/kg/day", "value": 12, "unit": "%"}, {"measurement": "decrease in total protein", "setting": "CD [Crl:CD (SD)] rats; 1500 mg/kg/day", "value": 10, "unit": "%"}, {"measurement": "increase in alkaline phosphatase", "setting": "CD [Crl:CD (SD)] rats; 1500 mg/kg/day", "value": 1.45, "unit": "fold"}, {"measurement": "hepatic microsomal enzyme induction", "setting": "CD [Crl:CD (SD)] rats; following 28 days of dosing", "value": "no evidence"}, {"measurement": "Prostate weight (mean % decrease)", "setting": "dogs; 3 mg/kg/day", "value": "↓ 63%"}, {"measurement": "Prostate weight (mean % decrease)", "setting": "dogs; 30 mg/kg/day", "value": "↓ 66%"}, {"measurement": "Prostate weight (mean % decrease)", "setting": "dogs; 300 mg/kg/day", "value": "↓ 75%"}]}
